Common to all, as to format: functional, organism-based
Assay [1] has as its system Saccharomyces cerevisiae. The assay is described as follows: Antimicrobial activity against glc7-129 allele containing Saccharomyces cerevisiae harboring cdc28-as transfected with 2 uM expression vector TEplac195 at 2.5 nM using deletion pool construction.
Assay [2] relates to Saccharomyces cerevisiae. The assay is described as follows: Antimicrobial activity against glc7-127 allele containing Saccharomyces cerevisiae harboring cdc28-as transfected with 2 uM expression vector TEplac195 at 2.5 nM using deletion pool construction.
In assay [3] the test system is Saccharomyces cerevisiae. The assay is described as follows: Antimicrobial activity against glc7-129 allele containing Saccharomyces cerevisiae harboring cdc28-as transfected with 2 uM expression vector TEplac195 at 25 nM using deletion pool construction.
For assay [4], the system named is Saccharomyces cerevisiae. The assay is described as follows: Antimicrobial activity against glc7-127 allele containing Saccharomyces cerevisiae harboring cdc28-as transfected with 2 uM expression vector TEplac195 at 25 nM using deletion pool construction.
Assay [5] concerns Saccharomyces cerevisiae. The assay is described as follows: Suppression of CSH1 gene in Saccharomyces cerevisiae harboring cdc28-as transfected with 2 uM expression vector TEplac195 at 500 nM using multicopy pool construction by TAG microarray.
Assay [6] relates to Saccharomyces cerevisiae. The assay is described as follows: Suppression of TOS1 gene in Saccharomyces cerevisiae harboring cdc28-as transfected with 2 uM expression vector TEplac195 at 500 nM using multicopy pool construction by TAG microarray.
Assay [7] has as its system Saccharomyces cerevisiae. The assay is described as follows: Suppression of IFA38 gene in Saccharomyces cerevisiae harboring cdc28-as transfected with 2 uM expression vector TEplac195 at 500 nM using multicopy pool construction by TAG microarray.
Assay [8] relates to Saccharomyces cerevisiae. The assay is described as follows: Suppression of CDC28 gene in Saccharomyces cerevisiae harboring cdc28-as transfected with 2 uM expression vector TEplac195 at 500 nM using multicopy pool construction by TAG microarray.
The subject of assay [9] is Saccharomyces cerevisiae. The assay is described as follows: Suppression of […] gene in Saccharomyces cerevisiae harboring cdc28-as transfected with 2 uM expression vector TEplac195 at 5 uM using multicopy pool construction by TAG microarray.
Assay [10] has as its system Saccharomyces cerevisiae. The assay is described as follows: Suppression of […] gene in Saccharomyces cerevisiae harboring cdc28-as at 2.5 uM using deletion pool construction by TAG microarray.
The test system of assay [11] is Saccharomyces cerevisiae. The assay is described as follows: Suppression of TUB1 gene in Saccharomyces cerevisiae harboring cdc28-as transfected with 2 uM expression vector TEplac195 at 33.2 uM using multicopy pool construction by TAG microarray.
The subject of assay [12] is Saccharomyces cerevisiae. The assay is described as follows: Suppression of TUB1 gene in Saccharomyces cerevisiae harboring cdc28-as at 15 uM using deletion pool construction by TAG microarray.
Assay [13] has as its system Saccharomyces cerevisiae. The assay is described as follows: Suppression of TUB2 gene in Saccharomyces cerevisiae harboring cdc28-as transfected with 2 uM expression vector TEplac195 at 33.2 uM using multicopy pool construction by TAG microarray.
For assay [14], the system named is Saccharomyces cerevisiae. The assay is described as follows: Suppression of TUB2 gene in Saccharomyces cerevisiae harboring cdc28-as at 15 uM using deletion pool construction by TAG microarray.
The subject of assay [15] is Saccharomyces cerevisiae. The assay is described as follows: Suppression of HEM1 gene in Saccharomyces cerevisiae harboring cdc28-as at 0.002% using deletion pool construction by TAG microarray.
Assay [16] deals with Saccharomyces cerevisiae. The assay is described as follows: Suppression of HEM1 gene in Saccharomyces cerevisiae harboring cdc28-as transfected with 2 uM expression vector TEplac195 at 0.015% using multicopy pool construction by TAG microarray.

Here are results for 6 compounds from ChEMBL document CHEMBL1250447, “An integrated platform of genomic assays reveals small-molecule bioactivities” (Nat Chem Biol, 2008).

Calls of active or inactive are those of the source. The rule behind the calls is not given here.

As for `C[C@@]12C(=O)OC(=O)[C@]1(C)[C@H]1CC[C@@H]2O1`, the result in the assay with Saccharomyces cerevisiae [1] was inactive. Besides, the result with Saccharomyces cerevisiae [2] was Active.
For the compound `COC[C@@H]([C@H](O)[C@H](O)C(=O)NCC[C@H](C)c1nc(/C=C/C[C@@H]2O[C@]3(C[C@@H](O)[C@@H]2C)O[C@H]([C@H](C[C@H](O)[C@H](C)[C@H](O)[C@H](C)/C=C(C)/C(C)=C/C=C/C(C)=C\C#N)OC)[C@H](OP(=O)(O)O)C3(C)C)co1)N(C)C`, in the assay with Saccharomyces cerevisiae [3], the result was Active. Moreover, in the assay with Saccharomyces cerevisiae [4], the outcome was inactive.
On to `CC(C)(C)n1nc(Cc2cccc3ccccc23)c2c(N)ncnc21`, for which the result in the assay on Saccharomyces cerevisiae [5], in the assay with Saccharomyces cerevisiae [6], in the assay with Saccharomyces cerevisiae [7] and in the assay on Saccharomyces cerevisiae [8] was Active.
`C/C1=C/C(=O)O[C@@H]2C[C@@H](CC[C@H](C)/C=C\C=C\CC1)O[C@@](O)([C@@H]1CSC(=O)N1)C2`: the result with Saccharomyces cerevisiae [9] and with Saccharomyces cerevisiae [10] was Active.
As for `COC(=O)Nc1nc2cc(C(=O)c3cccs3)ccc2[nH]1`, the result in the assay with Saccharomyces cerevisiae [11], with Saccharomyces cerevisiae [12], in the assay on Saccharomyces cerevisiae [13] and with Saccharomyces cerevisiae [14] was Active.
Regarding `COS(C)(=O)=O`, the outcome in the assay on Saccharomyces cerevisiae [15] and with Saccharomyces cerevisiae [16] was Active.
